Source: PMC12748989 (Nature Communications, 2025)

What was measured:
PBMC = settings: 12.5 µM

SMILES | Average (percentage cell inhibition), Mastoparan PBMC (PBMC) [%] | Average (percentage cell inhibition), Dmastoparan MDA-MB231 12.5uM (MDA-MB-231 cells) [%]
CC[C@H](C)[C@H](N)C(=O)N[C@@H](CC(N)=O)C(=O)N[C@@H](CC(C)C)C(=O)N[C@@H](CCCCN)C(=O)N[C@@H](C)C(=O)N[C@@H](CC(C)C)C(=O)N[C@@H](C)C(=O)N[C@@H](C)C(=O)N[C@@H](CC(C)C)C(=O)N[C@@H](Cc1c[nH]c2ccccc12)C(=O)N[C@@H](CCCCN)C(=O)N[C@@H](CCCCN)C(=O)N[C@H](C(=O)N[C@@H](CC(C)C)C(N)=O)[C@@H](C)CC [W10] | 15.3863 | 49.5675
CC[C@H](C)[C@H](N)C(=O)N[C@@H](CC(N)=O)C(=O)N[C@@H](CC(C)C)C(=O)N[C@@H](CCCCN)C(=O)N[C@@H](C)C(=O)N[C@@H](CC(C)C)C(=O)N[C@@H](C)C(=O)N[C@@H](C)C(=O)N[C@@H](CC(C)C)C(=O)N[C@@H](C)C(=O)N[C@@H](CC(N)=O)C(=O)N[C@@H](CCCCN)C(=O)N[C@H](C(=O)N[C@@H](CC(C)C)C(N)=O)[C@@H](C)CC [N11] | 4.624 | 40.5108
CC[C@H](C)[C@H](N)C(=O)N[C@@H](CC(N)=O)C(=O)N[C@@H](CC(C)C)C(=O)N[C@@H](CCCCN)C(=O)N[C@@H](C)C(=O)N[C@@H](CC(C)C)C(=O)N[C@@H](C)C(=O)N[C@@H](C)C(=O)N[C@@H](CC(C)C)C(=O)N[C@@H](C)C(=O)N[C@@H](CCCCN)C(=O)N[C@@H](Cc1c[nH]cn1)C(=O)N[C@H](C(=O)N[C@@H](CC(C)C)C(N)=O)[C@@H](C)CC [H12] | 0.5315 | 31.16
CC[C@H](C)[C@H](N)C(=O)N[C@@H](CC(N)=O)C(=O)N[C@@H](CC(C)C)C(=O)N[C@@H](CCCCN)C(=O)N[C@@H](C)C(=O)N[C@@H](CC(C)C)C(=O)N[C@@H](C)C(=O)N[C@@H](CC(N)=O)C(=O)N[C@@H](CC(C)C)C(=O)N[C@@H](C)C(=O)N[C@@H](CCCCN)C(=O)N[C@@H](CCCCN)C(=O)N[C@H](C(=O)N[C@@H](CC(C)C)C(N)=O)[C@@H](C)CC [N8] | 16.8851 | 46.3177
CC[C@H](C)[C@H](N)C(=O)N[C@@H](CC(N)=O)C(=O)N[C@@H](CC(C)C)C(=O)N[C@@H](CCCCN)C(=O)N[C@@H](C)C(=O)N[C@@H](CC(C)C)C(=O)N[C@@H](CC(N)=O)C(=O)N[C@@H](C)C(=O)N[C@@H](CC(C)C)C(=O)N[C@@H](C)C(=O)N[C@@H](CCCCN)C(=O)N[C@@H](CCCCN)C(=O)N[C@H](C(=O)N[C@@H](CC(C)C)C(N)=O)[C@@H](C)CC [N7] | 10.586 | 28.8818
CC[C@H](C)[C@H](N)C(=O)N[C@@H](CC(N)=O)C(=O)N[C@@H](CC(C)C)C(=O)N[C@@H](CCCCN)C(=O)N[C@@H](C)C(=O)N[C@@H](CC(C)C)C(=O)N[C@@H](C)C(=O)N[C@@H](C)C(=O)N[C@H](C(=O)N[C@@H](C)C(=O)N[C@@H](CCCCN)C(=O)N[C@@H](CCCCN)C(=O)N[C@H](C(=O)N[C@@H](CC(C)C)C(N)=O)[C@@H](C)CC)[C@@H](C)O [T9] | 2.309 | 18.2148
CC[C@H](C)[C@H](N)C(=O)N[C@@H](CC(N)=O)C(=O)N[C@@H](CC(C)C)C(=O)N[C@@H](CCCCN)C(=O)N[C@@H](C)C(=O)N[C@@H](CC(C)C)C(=O)N[C@@H](C)C(=O)N[C@@H](C)C(=O)N[C@@H](CC(C)C)C(=O)N[C@@H](C)C(=O)N[C@@H](CCCNC(=N)N)C(=O)N[C@@H](CCCCN)C(=O)N[C@H](C(=O)N[C@@H](CC(C)C)C(N)=O)[C@@H](C)CC [R11] | 5.503 | 37.1061
CC[C@H](C)[C@H](N)C(=O)N[C@@H](CC(N)=O)C(=O)N[C@H](C(=O)N[C@@H](CCCCN)C(=O)N[C@@H](C)C(=O)N[C@@H](CC(C)C)C(=O)N[C@@H](C)C(=O)N[C@@H](C)C(=O)N[C@@H](CC(C)C)C(=O)N[C@@H](C)C(=O)N[C@@H](CCCCN)C(=O)N[C@@H](CCCCN)C(=O)N[C@H](C(=O)N[C@@H](CC(C)C)C(N)=O)[C@@H](C)CC)[C@@H](C)CC [I3] | 14.9456 | 30.5933
CC[C@H](C)[C@H](NC(=O)[C@H](CCCCN)NC(=O)[C@H](CCCCN)NC(=O)[C@H](C)NC(=O)[C@H](CC(C)C)NC(=O)[C@H](C)NC(=O)[C@H](C)NC(=O)[C@H](CC(C)C)NC(=O)[C@H](C)NC(=O)[C@H](CCCCN)NC(=O)[C@H](CC(C)C)NC(=O)[C@H](CC(N)=O)NC(=O)[C@@H](N)[C@@H](C)O)C(=O)N[C@@H](CC(C)C)C(N)=O [T1] | 14.7113 | 37.2219
CC[C@H](C)[C@H](N)C(=O)N[C@@H](CC(N)=O)C(=O)N[C@@H](CC(C)C)C(=O)N[C@@H](CCCCN)C(=O)N[C@@H](C)C(=O)N[C@@H](CC(C)C)C(=O)N[C@@H](C)C(=O)N[C@@H](CO)C(=O)N[C@@H](CC(C)C)C(=O)N[C@@H](C)C(=O)N[C@@H](CCCCN)C(=O)N[C@@H](CCCCN)C(=O)N[C@H](C(=O)N[C@@H](CC(C)C)C(N)=O)[C@@H](C)CC [S8] | -6.033 | 32.8816
CC[C@H](C)[C@H](N)C(=O)N[C@@H](CC(N)=O)C(=O)N[C@@H](CC(C)C)C(=O)N[C@@H](CCCCN)C(=O)N[C@@H](C)C(=O)N[C@@H](CC(C)C)C(=O)N[C@@H](Cc1c[nH]cn1)C(=O)N[C@@H](C)C(=O)N[C@@H](CC(C)C)C(=O)N[C@@H](C)C(=O)N[C@@H](CCCCN)C(=O)N[C@@H](CCCCN)C(=O)N[C@H](C(=O)N[C@@H](CC(C)C)C(N)=O)[C@@H](C)CC [H7] | 4.935 | 37.3401
CC[C@H](C)[C@H](N)C(=O)N[C@@H](CC(N)=O)C(=O)N[C@@H](Cc1c[nH]cn1)C(=O)N[C@@H](CCCCN)C(=O)N[C@@H](C)C(=O)N[C@@H](CC(C)C)C(=O)N[C@@H](C)C(=O)N[C@@H](C)C(=O)N[C@@H](CC(C)C)C(=O)N[C@@H](C)C(=O)N[C@@H](CCCCN)C(=O)N[C@@H](CCCCN)C(=O)N[C@H](C(=O)N[C@@H](CC(C)C)C(N)=O)[C@@H](C)CC [H3] | -4.438 | 10.8919
CC[C@H](C)[C@H](N)C(=O)N[C@@H](CC(N)=O)C(=O)N[C@@H](CC(C)C)C(=O)N[C@@H](Cc1ccc(O)cc1)C(=O)N[C@@H](C)C(=O)N[C@@H](CC(C)C)C(=O)N[C@@H](C)C(=O)N[C@@H](C)C(=O)N[C@@H](CC(C)C)C(=O)N[C@@H](C)C(=O)N[C@@H](CCCCN)C(=O)N[C@@H](CCCCN)C(=O)N[C@H](C(=O)N[C@@H](CC(C)C)C(N)=O)[C@@H](C)CC [Y4] | 3.789 | 34.4143
CC[C@H](C)[C@H](N)C(=O)N[C@@H](CC(N)=O)C(=O)N[C@@H](CC(C)C)C(=O)N[C@@H](CCCCN)C(=O)N[C@@H](C)C(=O)N[C@@H](CC(C)C)C(=O)N[C@@H](C)C(=O)N[C@@H](C)C(=O)N[C@@H](CC(C)C)C(=O)N[C@H](C(=O)N[C@@H](CCCCN)C(=O)N[C@@H](CCCCN)C(=O)N[C@H](C(=O)N[C@@H](CC(C)C)C(N)=O)[C@@H](C)CC)[C@@H](C)CC [I10] | 25.836 | 54.8759
CC[C@H](C)[C@H](N)C(=O)N[C@@H](CC(N)=O)C(=O)N[C@@H](Cc1ccc(O)cc1)C(=O)N[C@@H](CCCCN)C(=O)N[C@@H](C)C(=O)N[C@@H](CC(C)C)C(=O)N[C@@H](C)C(=O)N[C@@H](C)C(=O)N[C@@H](CC(C)C)C(=O)N[C@@H](C)C(=O)N[C@@H](CCCCN)C(=O)N[C@@H](CCCCN)C(=O)N[C@H](C(=O)N[C@@H](CC(C)C)C(N)=O)[C@@H](C)CC [Y3] | 5.097 | 39.9685
CC[C@H](C)[C@H](N)C(=O)N[C@@H](CC(N)=O)C(=O)N[C@@H](CC(C)C)C(=O)N[C@@H](CCCCN)C(=O)N[C@@H](C)C(=O)N[C@@H](CC(C)C)C(=O)N[C@@H](C)C(=O)N[C@@H](C)C(=O)N[C@@H](CCC(N)=O)C(=O)N[C@@H](C)C(=O)N[C@@H](CCCCN)C(=O)N[C@@H](CCCCN)C(=O)N[C@H](C(=O)N[C@@H](CC(C)C)C(N)=O)[C@@H](C)CC [Q9] | 2.087 | 30.6331
CC[C@H](C)[C@H](N)C(=O)N[C@@H](CC(N)=O)C(=O)N[C@@H](CO)C(=O)N[C@@H](CCCCN)C(=O)N[C@@H](C)C(=O)N[C@@H](CC(C)C)C(=O)N[C@@H](C)C(=O)N[C@@H](C)C(=O)N[C@@H](CC(C)C)C(=O)N[C@@H](C)C(=O)N[C@@H](CCCCN)C(=O)N[C@@H](CCCCN)C(=O)N[C@H](C(=O)N[C@@H](CC(C)C)C(N)=O)[C@@H](C)CC [S3] | 5.178 | 12.1099
CC[C@H](C)[C@H](N)C(=O)N[C@@H](CC(N)=O)C(=O)N[C@@H](CC(C)C)C(=O)N[C@@H](CCCCN)C(=O)N[C@H](C(=O)N[C@@H](CC(C)C)C(=O)N[C@@H](C)C(=O)N[C@@H](C)C(=O)N[C@@H](CC(C)C)C(=O)N[C@@H](C)C(=O)N[C@@H](CCCCN)C(=O)N[C@@H](CCCCN)C(=O)N[C@H](C(=O)N[C@@H](CC(C)C)C(N)=O)[C@@H](C)CC)[C@@H](C)O [T5] | 12.9165 | 39.042
CC[C@H](C)[C@H](N)C(=O)N[C@@H](CC(N)=O)C(=O)N[C@@H](CC(C)C)C(=O)N[C@@H](CCCCN)C(=O)N[C@@H](C)C(=O)N[C@@H](CC(C)C)C(=O)N[C@@H](C)C(=O)N[C@@H](C)C(=O)N[C@@H](CC(C)C)C(=O)N[C@@H](C)C(=O)N[C@@H](CCCCN)C(=O)N[C@@H](CC(C)C)C(=O)N[C@H](C(=O)N[C@@H](CC(C)C)C(N)=O)[C@@H](C)CC [L12] | 80.1821 | 85.0992
